Data on twelve molecules can be found in article PMC7531004, “Discovery of gramicidin A analogues with altered activities by multidimensional screening of a one-bead-one-compound library” (Nature Communications, 2020).

Structures are written as SMILES. Where a SMILES comes first, the peptide text is derived from it. [ ]: non-standard residue; d: D form. The star is where a group is joined. NHCH2CH2OH = OCCN*; For = O=C*

Data set [1] is described as follows: H+/Na+ transport assay of bead-derived peptides (one-point).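 Further: relative to parent gramicidin A activity set to 1.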 The following applies: bead-derived peptide solution, EYPC/EYPG LUVs. Format: biochemical. On the set-up: key: relative activity; mean of two control wells = 1.00. The essentials:
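H+/Na+ transport is monitored through pyranine fluorescence in freshly extruded LUVs after a 30-min room-temperature vortex with each library peptide at a single concentration. Signals are normalized to detergent (Triton X-100) and untreated controls.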

The test system of data set [2] is P388 mouse leukemia cells. Conditions: 92 h. The method in brief: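 P388 cells at 1 × 10^4 cells/mL (final) were exposed to library peptides (stocks diluted 250-fold in RPMI1640/10% FBS) for 92 h at 37 °C, 5% CO2. Viable cells were counted by WST-1/1-methoxy PMS (4 h), absorbance 415 nm, and expressed as cell viability (%).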
Data set [3] deals with Streptococcus pyogenes SSI-9. The experiment in a line: Antibacterial activity assay of bead-derived peptides (three concentrations). Format: cell-based. On the set-up: key: +++: inhibition by the 640-fold diluted peptide solution; ++: inhibition by the 160-fold diluted solution; +: inhibition by the 40-fold diluted solution; -: no inhibition. The following applies: S. pyogenes, bead-derived peptide solution, three concentrations. The method in brief: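 Undiluted, 4-fold and 16-fold DMSO-diluted peptide stocks; S. pyogenes SSI-9, 2 × 10^5 CFU, cation-adjusted MHB (50 mg/L Ca2+, 25 mg/L Mg2+) + 5% laked horse blood; 37 °C, 18 h; readout = cell pellet visible or not.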

As to `CC(C)C[C@@H](NC(=O)[C@H](C)NC(=O)CNC(=O)[C@@H](NC=O)C(C)C)C(=O)N[C@@H](C)C(=O)N[C@H](CC(C)C)C(=O)N[C@H](C(=O)N[C@@H](C(=O)N[C@@H](Cc1c[nH]c2ccccc12)C(=O)N[C@@H](C(=O)N[C@@H](Cc1c[nH]c2ccccc12)C(=O)N[C@H](CC(C)C)C(=O)N[C@@H](Cc1c[nH]c2ccccc12)C(=O)N[C@H](CC(C)C)C(=O)N[C@@H](Cc1c[nH]c2ccccc12)C(=O)NCCO)C(C)C)[C@H](C)O)C(C)C` [compound 2158] (For-VGA[dL]A[dL]V[dT]W[dV]W[dL]W[dL]W-NHCH2CH2OH), in data set [1], the “H+/Na+ transport activity normalized against the value of 1 (1.00)” value (shortened to “H+/Na+ transport activity normalized”) is 1.18. Also, the cell viability/% in data set [2] is recorded as 100.0%. The antibacterial activity entry in data set [3] is reported as “-”.
Consider `CC(C)C[C@@H](NC(=O)[C@H](C)NC(=O)[C@H](NC(=O)[C@H](C)NC(=O)CNC(=O)[C@@H](NC=O)C(C)C)C(C)C)C(=O)N[C@H](C(=O)N[C@@H](C(=O)N[C@@H](Cc1c[nH]c2ccccc12)C(=O)N[C@@H](C(=O)N[C@@H](Cc1c[nH]c2ccccc12)C(=O)N[C@H](CC(C)C)C(=O)N[C@@H](Cc1c[nH]c2ccccc12)C(=O)N[C@@H](C(=O)N[C@@H](Cc1c[nH]c2ccccc12)C(=O)NCCO)[C@H](C)O)C(C)C)C(C)C)C(C)C` [compound 12285] (For-VGA[dV]A[dL]V[dV]W[dV]W[dL]W[dT]W-NHCH2CH2OH), for which the “H+/Na+ transport activity normalized” value in data set [1] came out at 1.01. Besides, the cell viability/% in data set [2] stood at 100.0%. Further, the antibacterial activity entry in data set [3] is recorded as “-”.
Taken in the same sequence, the figures for `CC(C)C[C@@H](NC(=O)[C@H](Cc1c[nH]c2ccccc12)NC(=O)[C@H](NC(=O)[C@H](Cc1c[nH]c2ccccc12)NC(=O)[C@@H](CC(C)C)NC(=O)[C@H](Cc1c[nH]c2ccccc12)NC(=O)[C@@H](CC(C)C)NC(=O)[C@@H](NC(=O)[C@H](NC(=O)[C@H](C)NC(=O)[C@H](NC(=O)[C@H](C)NC(=O)CNC(=O)[C@@H](NC=O)C(C)C)[C@H](C)O)C(C)C)C(C)C)C(C)C)C(=O)N[C@@H](Cc1c[nH]c2ccccc12)C(=O)NCCO` [compound 4440] (For-VGA[dT]A[dV]V[dL]W[dL]W[dV]W[dL]W-NHCH2CH2OH) were 1.15, 85.6% and “-”.
The corresponding values for `CC(C)C[C@@H](NC(=O)[C@H](C)NC(=O)CNC(=O)[C@@H](NC=O)C(C)C)C(=O)N[C@@H](C)C(=O)N[C@@H](C(=O)N[C@H](C(=O)N[C@@H](C(=O)N[C@@H](Cc1c[nH]c2ccccc12)C(=O)N[C@@H](C(=O)N[C@@H](Cc1c[nH]c2ccccc12)C(=O)N[C@H](CC(C)C)C(=O)N[C@@H](Cc1c[nH]c2ccccc12)C(=O)N[C@@H](C(=O)N[C@@H](Cc1c[nH]c2ccccc12)C(=O)NCCO)C(C)C)C(C)C)C(C)C)C(C)C)C(C)C` [compound 6861] (For-VGA[dL]A[dV]V[dV]W[dV]W[dL]W[dV]W-NHCH2CH2OH) are 1.18, 100.0% and “+”.
The corresponding values for `CC(C)C[C@@H](NC(=O)[C@H](C)NC(=O)CNC(=O)[C@@H](NC=O)C(C)C)C(=O)N[C@@H](C)C(=O)N[C@@H](C(=O)N[C@H](C(=O)N[C@@H](C(=O)N[C@@H](Cc1c[nH]c2ccccc12)C(=O)N[C@H](CC(C)C)C(=O)N[C@@H](Cc1c[nH]c2ccccc12)C(=O)N[C@H](CC(C)C)C(=O)N[C@@H](Cc1c[nH]c2ccccc12)C(=O)N[C@@H](C(=O)N[C@@H](Cc1c[nH]c2ccccc12)C(=O)NCCO)C(C)C)[C@H](C)O)C(C)C)C(C)C` [compound 2235] (For-VGA[dL]A[dV]V[dT]W[dL]W[dL]W[dV]W-NHCH2CH2OH) are 1.01, 100.0% and “+”.
As for `CC(C)C[C@@H](NC(=O)[C@H](C)NC(=O)CNC(=O)[C@@H](NC=O)C(C)C)C(=O)N[C@@H](C)C(=O)N[C@@H](C(=O)N[C@H](C(=O)N[C@@H](C(=O)N[C@@H](Cc1c[nH]c2ccccc12)C(=O)N[C@@H](C(=O)N[C@@H](Cc1c[nH]c2ccccc12)C(=O)N[C@H](CC(C)C)C(=O)N[C@@H](Cc1c[nH]c2ccccc12)C(=O)N[C@H](CC(C)C)C(=O)N[C@@H](Cc1c[nH]c2ccccc12)C(=O)NCCO)C(C)C)[C@H](C)O)C(C)C)C(C)C` [compound 5482] (For-VGA[dL]A[dV]V[dT]W[dV]W[dL]W[dL]W-NHCH2CH2OH), the “H+/Na+ transport activity normalized” value in data set [1] was determined as 1.25. For the same molecule, the cell viability/% in data set [2] was 100.0%. Moreover, the antibacterial activity result in data set [3] is given as “-”.
Consider `CC(C)C[C@@H](NC(=O)[C@H](C)NC(=O)[C@H](NC(=O)[C@H](C)NC(=O)CNC(=O)[C@@H](NC=O)C(C)C)C(C)C)C(=O)N[C@H](C(=O)N[C@H](CC(C)C)C(=O)N[C@@H](Cc1c[nH]c2ccccc12)C(=O)N[C@@H](C(=O)N[C@@H](Cc1c[nH]c2ccccc12)C(=O)N[C@H](CC(C)C)C(=O)N[C@@H](Cc1c[nH]c2ccccc12)C(=O)N[C@@H](C(=O)N[C@@H](Cc1c[nH]c2ccccc12)C(=O)NCCO)C(C)C)[C@H](C)O)C(C)C` [compound 4232] (For-VGA[dV]A[dL]V[dL]W[dT]W[dL]W[dV]W-NHCH2CH2OH), for which, in data set [1], the “H+/Na+ transport activity normalized” value was 1.05. Besides, in data set [2], the cell viability/% was found to be 93.0%. Further, the antibacterial activity entry in data set [3] is given as “-”.
Taken in the same sequence, the figures for `CC(C)C[C@@H](NC(=O)[C@H](C)NC(=O)CNC(=O)[C@@H](NC=O)C(C)C)C(=O)N[C@@H](C)C(=O)N[C@@H](C(=O)N[C@H](C(=O)N[C@H](CC(C)C)C(=O)N[C@@H](Cc1c[nH]c2ccccc12)C(=O)N[C@H](CC(C)C)C(=O)N[C@@H](Cc1c[nH]c2ccccc12)C(=O)N[C@@H](C(=O)N[C@@H](Cc1c[nH]c2ccccc12)C(=O)N[C@H](CC(C)C)C(=O)N[C@@H](Cc1c[nH]c2ccccc12)C(=O)NCCO)C(C)C)C(C)C)C(C)C` [compound 7191] (For-VGA[dL]A[dV]V[dL]W[dL]W[dV]W[dL]W-NHCH2CH2OH) were 1.15, 0.0% and “+”.
For `CC(C)C[C@@H](NC(=O)[C@H](C)NC(=O)[C@H](NC(=O)[C@H](C)NC(=O)CNC(=O)[C@@H](NC=O)C(C)C)C(C)C)C(=O)N[C@H](C(=O)N[C@@H](C(=O)N[C@@H](Cc1c[nH]c2ccccc12)C(=O)N[C@H](CC(C)C)C(=O)N[C@@H](Cc1c[nH]c2ccccc12)C(=O)N[C@@H](C(=O)N[C@@H](Cc1c[nH]c2ccccc12)C(=O)N[C@@H](C(=O)N[C@@H](Cc1c[nH]c2ccccc12)C(=O)NCCO)C(C)C)C(C)C)[C@H](C)O)C(C)C` [compound 9487] (For-VGA[dV]A[dL]V[dT]W[dL]W[dV]W[dV]W-NHCH2CH2OH), the “H+/Na+ transport activity normalized” value in data set [1] came out at 1.15. Also, the cell viability/% in data set [2] was determined as 100.0%. The antibacterial activity result in data set [3] is “-”.
As for `CC(C)C[C@@H](NC(=O)[C@H](C)NC(=O)[C@H](NC(=O)[C@H](C)NC(=O)CNC(=O)[C@@H](NC=O)C(C)C)C(C)C)C(=O)N[C@H](C(=O)N[C@H](CC(C)C)C(=O)N[C@@H](Cc1c[nH]c2ccccc12)C(=O)N[C@H](CC(C)C)C(=O)N[C@@H](Cc1c[nH]c2ccccc12)C(=O)N[C@H](CC(C)C)C(=O)N[C@@H](Cc1c[nH]c2ccccc12)C(=O)N[C@H](CC(C)C)C(=O)N[C@@H](Cc1c[nH]c2ccccc12)C(=O)NCCO)C(C)C` [compound 12877] (For-VGA[dV]A[dL]V[dL]W[dL]W[dL]W[dL]W-NHCH2CH2OH), in data set [1], the “H+/Na+ transport activity normalized” value is 1.04. In addition, the cell viability/% in data set [2] is reported as 4.7%. Also, the antibacterial activity entry in data set [3] was “-”.
For `CNC(=O)C[C@@H](NC(=O)[C@@H](NC(=O)[C@@H](CC(C)C)NC(=O)[C@H](C)NC(=O)[C@H](NC(=O)[C@H](C)NC(=O)CNC(=O)[C@@H](NC=O)C(C)C)C(C)C)C(C)C)C(=O)N[C@@H](Cc1c[nH]c2ccccc12)C(=O)N[C@H](CC(C)C)C(=O)N[C@@H](Cc1c[nH]c2ccccc12)C(=O)N[C@@H](C(=O)N[C@@H](Cc1c[nH]c2ccccc12)C(=O)N[C@@H](C(=O)N[C@@H](Cc1c[nH]c2ccccc12)C(=O)NCCO)C(C)C)C(C)C` [compound 11349] (For-VGA[dV]A[dL]V[dD](NHMe)W[dL]W[dV]W[dV]W-NHCH2CH2OH), in data set [1], the “H+/Na+ transport activity normalized” value stood at 1.00. The same molecule yielded a cell viability/% in data set [2] of 34.3%. In addition, the antibacterial activity entry in data set [3] is “-”.
Consider `CC(C)C[C@@H](NC(=O)[C@H](C)NC(=O)[C@H](NC(=O)[C@H](C)NC(=O)CNC(=O)[C@@H](NC=O)C(C)C)C(C)C)C(=O)N[C@H](C(=O)N[C@@H](C(=O)N[C@@H](Cc1c[nH]c2ccccc12)C(=O)N[C@H](CC(C)C)C(=O)N[C@@H](Cc1c[nH]c2ccccc12)C(=O)N[C@@H](C(=O)N[C@@H](Cc1c[nH]c2ccccc12)C(=O)N[C@H](CC(C)C)C(=O)N[C@@H](Cc1c[nH]c2ccccc12)C(=O)NCCO)[C@H](C)O)C(C)C)C(C)C` [compound 11374] (For-VGA[dV]A[dL]V[dV]W[dL]W[dT]W[dL]W-NHCH2CH2OH), for which, in data set [1], the “H+/Na+ transport activity normalized” value is recorded as 1.07. Moreover, the cell viability/% in data set [2] is given as 45.1%. For the same molecule, in data set [3], the antibacterial activity entry was “+”.
